Experimental findings from patent US11020409B2, “Broad antiviral therapy with membrane modifying oxysterols” (priority 2012, dated 2021) are described below.

SMILES strings stand for the structures. Where “and” joins values, the source holds several entries; their conditions need not be identical. Identical values can stand only once. Like-named read-outs stand apart in the source and are kept apart here. Bounds are passed on as bounds.

The subject of one data set is HIV-IIIB pseudovirus. The data set is classed as cell-based, human-immunodeficiency virus.
Data set [1] has as its system HIV NL4-3 encoding Vpr-BlaM (NL4-3/BlaM). The data set is classed as cell-based, human-immunodeficiency virus.
The next data set relates to VSV. The data set is classed as cell-based, vesicular stomatitis virus.
For data set [2], the system named is VSV-GFP. The data set can be described thus: microbe, parasite or virus in culture. The data set is classed as cell-based, vesicular stomatitis virus.
The test system of the next data set is NL4-3-GFP. The data set is classed as cell-based, human-immunodeficiency virus.
For the next data set, the system named is HIV NL4-3. The data set is classed as cell-based, human-immunodeficiency virus.
In data set [3] the test system is Nipah virus (Bangladesh strain). The data set is classed as cell-based.
In the next data set the test system is HIV NL4-R3A. The data set can be described thus: HIV infection in DKO-hu humanized mice. The data set is classed as in vivo, HIV-1.
Data set [4] deals with Nipah fusion (F) and attachment (G) proteins. The data set is classed as cell-based, Nipah virus.
The subject of data set [5] is replication-competent VSV. The data set is classed as cell-based, vesicular stomatitis virus.
A further data set relates to pseudotyped HIV-IIIB. The data set is classed as cell-based, human-immunodeficiency virus.
Another data set relates to Ebola Zaire-GFP (EBOV). The data set is classed as cell-based, Ebola virus.
For the next data set, the system named is adenovirus-GFP. The data set is classed as cell-based.
The subject of data set [6] is Russian Spring-Summer Encephalitis Virus (RSSEV). The data set is classed as cell-based.
Data set [7] concerns Rift Valley Fever Virus ZH501 (RVFV). The data set is classed as cell-based.
The test system of data set [8] is VSV-GFP. The data set is classed as cell-based, vesicular stomatitis virus.
The test system of the next data set is VSV-G/BlaM. The data set is classed as cell-based, vesicular stomatitis virus.
Data set [9] relates to RVFV (MP12 vaccine strain). The data set is classed as cell-based, Rift Valley Fever Virus.
For a further data set, the system named is VSVΔG-Luc/G pseudovirus. The data set is classed as cell-based, vesicular stomatitis virus.

For `Cc1cn([C@H]2C[C@H](N=[N+]=[N-])[C@@H](CO)O2)c(=O)[nH]c1=O` [AZT, reference compound], in the data set with HIV-IIIB pseudovirus, the “inhibition of luciferase expression from single round infection” value is recorded as roughly 70%.
For `c1cc(CN2CCCNCCNCCCNCC2)ccc1CN1CCCNCCNCCCNCC1` [AMD3100, reference compound], the NL4-3/Bla entry result in data set [1] is “abrogated”.
On to `CN(C)CCCN1c2ccccc2Sc2ccc(Cl)cc21` [CPZ, reference compound], for which the “VSV binding (VSV genomic RNA)” value with VSV was “did not inhibit binding significantly”.
For `CC(C)CC[C@@H](O)[C@@H](C)[C@H]1CC[C@H]2[C@@H]3CC=C4C[C@@H](O)CC[C@]4(C)[C@H]3CC[C@]12C` [22R-HC, 22-(R)-hydroxycholesterol, reference compound], in the data set on VSV-GFP [2], the “antiviral effect on VSV-GFP” value is “did not confer antiviral effect”.
Turning to `Cc1c(O)cccc1C(=O)N[C@@H](CSc1ccccc1)[C@H](O)CN1C[C@H]2CCCC[C@H]2C[C@H]1C(=O)NC(C)(C)C` [Nelfinavir, reference compound], in the data set with NL4-3-GFP, the “inhibition of p24 expression in supernatants” value is greater than 50%.
Take `CC(C)CC[C@H](O)[C@@H](C)[C@H]1CC[C@H]2[C@@H]3CC=C4C[C@@H](O)CC[C@]4(C)[C@H]3CC[C@]12C` [22S-HC, 22-(S)-hydroxycholesterol, reference compound]: the “effect on HIV p24 expression” value in the data set on HIV NL4-3 is recorded as “no effect”.
In general, IC50 refers to the point on the concentration scale where inhibition reaches its midpoint. Turning to `C[C@H](CCCC(C)(C)O)[C@H]1CC[C@H]2[C@@H]3CC=C4C[C@@H](O)CC[C@]4(C)[C@H]3CC[C@]12C` [25HC, 25-hydroxycholesterol], in data set [3], the “replication of Nipah, dose dependence” value is on record as “dose-dependent manner” and the “replication of live Nipah (Bangladesh)” value is “inhibited replication”. Besides, the “reduction of HIV RNA (copies/mL) in serum vs vehicle-treated mice” value in the data set with HIV NL4-R3A (50 mg/kg i.p. 12 h prior to infection and every day, 7 dpi, P<0.0001) was greater than 80%. Also, the “HIV p24 in CD4 T-cells from spleens” value in the data set with HIV NL4-R3A (50 mg/kg i.p. daily, 14 dpi) is given as “significantly lower”. In addition, in the data set on HIV NL4-R3A (50 mg/kg i.p. daily, CD3+ T-cell population, P<0.05), the “HIV-mediated CD4 T-cell depletion in peripheral blood leukocytes” value is given as “prevented HIV-mediated CD4 T-cell depletion”. For the same compound, in the data set on HIV NL4-R3A (50 mg/kg i.p. daily, P=0.06), the “HIV-mediated CD4 T-cell depletion in the spleen” value was “less significant”. Besides, in the data set with NL4-3-GFP, the “GFP expression from NL4-3-GFP (HIV transcription and translation)” value is on record as “did not suppress GFP expression”; the “HIV p24 expression in supernatants of transfected cells (budding)” value is “did not affect”. The syncytia formation result in [4] was “less syncytia formation”. The “reduction of fusion (nuclei per syncytia) relative to ethanol control” value in data set [4] (2 uM) is on record as roughly 50%. Moreover, in data set [4] (10 uM), the “reduction of fusion (nuclei per syncytia) relative to ethanol control” value is reported as roughly 60%. In data set [5], the “reduction in the amount of VSV produced (viral genome copies by qRT-PCR)” value is recorded as greater than 80%. In [5] (2.5 uM), the “infectious titer of viruses from treated cells normalized for viral gRNA” value is given as “equivalent plaque forming units”. Besides, the “inhibition of lateRT expression” value in the data set with pseudotyped HIV-IIIB is > 99% and ~70%. Besides, the “replication of live Ebola (EBOV-Zaire)” value in the data set on Ebola Zaire-GFP (EBOV) is reported as “inhibited replication”. Besides, the “adenovirus coexpressing GFP measured by FACS” value in the data set on adenovirus-GFP is given as “not affected”. Further, the “replication of live RSSEV” value in [6] was “inhibited replication”. Moreover, the “inhibition of luciferase expression from single round infection” value in the data set on HIV-IIIB pseudovirus is greater than 50%. Further, the “replication of live RVFV” value in data set [7] is recorded as “inhibited replication”. Besides, in the data set on HEK293T, the “LDH in supernatants of cells” value was “did not increase LDH” and the LDH level entry was “increased”. The “VSV binding (VSV genomic RNA)” value in the data set with VSV is given as “did not inhibit binding significantly”. Also, in the data set on VSV-GFP [2] (Vesicular stomatitis virus, HEK-293T, read-out: IC50 of inhibition of VSV-GFP expression by FACs), the IC50 is roughly 1000 nM. Besides, the VSV replication entry with VSV-GFP [8] is “reduced VSV replication”. For the same compound, in data set [1], the “decrease in NL4-3/Bla blue-green ratio at endpoint” value is roughly 60% and the “reduction in cells expressing cleaved CCF2-AM by FACS” value is recorded as greater than 85%. Further, the VSV-G/BlaM entry result with VSV-G/BlaM is reported as “dose-dependent inhibition”. The “inhibition of p24 expression compared to vehicle” value with HIV NL4-3 is on record as roughly 80%. In addition, the “replication of RVFV (MP12), dose dependence” value in data set [9] is “dose-dependent manner”. Moreover, in the data set on VSVΔG-Luc/G pseudovirus, the “VSV-G mediated infection, addition concurrently or 1 hpi” value is recorded as “not significantly inhibited” and the “inhibition of VSVΔG-Luc expression, pre-treatment” value is listed as “greater inhibition”.
